From patent publication US9943525B2, “Composition for reducing cell senescence comprising Rho-kinase inhibitor and use thereof” (Samsung Electronics Co., Ltd., priority 2014, dated 2018)

Test system: senescent fibroblasts (after 37 cell passages)
Assay: microscopic observation of cell number and shape
Assay type: cell-based, human
Settings: 5 μM, 4 weeks, FIG. 3
Protocol: In addition, after senescent fibroblasts (after 37 cell passages) were cultured in the same culture media and same conditions as described above in the presence of 0.05 (v/v) % of DMSO and Y-27632 (5 μM), shapes of the cells were observed using a microscope. FIG. 3 is a microscopic image illustrating cell shapes of senescent fibroblasts (after 37 cell passages) cultured in the presence of Y-27632 for 4 weeks.

Compound: C[C@@H](N)[C@H]1CC[C@H](C(=O)Nc2ccncc2)CC1 [Y-27632, (1R,4R)-4-((R)-1-aminoethyl)-N-(pyridin-4-yl)cyclohexanecarboxamide]
- cell shape: spindle shape generally found in young cells
- numbers of cells (vs DMSO): greater than that of the control group
